Laboratory results taken from patent US20160271268A1, “NUCLEIC ACID NANOSTRUCTURES FOR IN VIVO AGENT DELIVERY” (DANA-FARBER CANCER INSTITUTE, INC., priority 2013, published 2016).
Peptide text beside a SMILES is read from it.

System: dendritic cells
Experiment: Oligolysine induced toxicity to dendritic cells
Format: cell-based
Details: 1.5 μg/mL K20, different time intervals
Protocol: FIGS. 15A and 15B show oligolysine induced toxicity to dendritic cells. FIG. 15A: Freshly harvested dendritic cells were incubated with 1.5 μg/mL K20 for different time intervals. […] FIG. 15B: Confocal image of dendritic cells incubated with oligolysine (K20) peptide-coated, cy5 labeled DNA nanostructure.

NCCCC[C@H](NC(=O)[C@H](CCCCN)NC(=O)[C@H](CCCCN)NC(=O)[C@H](CCCCN)NC(=O)[C@H](CCCCN)NC(=O)[C@H](CCCCN)NC(=O)[C@H](CCCCN)NC(=O)[C@H](CCCCN)NC(=O)[C@H](CCCCN)NC(=O)[C@H](CCCCN)NC(=O)[C@H](CCCCN)NC(=O)[C@H](CCCCN)NC(=O)[C@H](CCCCN)NC(=O)[C@H](CCCCN)NC(=O)[C@H](CCCCN)NC(=O)[C@H](CCCCN)NC(=O)[C@H](CCCCN)NC(=O)[C@H](CCCCN)NC(=O)[C@H](CCCCN)NC(=O)[C@@H](N)CCCCN)C(=O)O [K20] (H-KKKKKKKKKKKKKKKKKKKK-OH)
appearance of dendritic cells under a microscope: cells appeared healthy
